Values of other authors, collected in US10653626B2, “Powder for oral suspension containing lamotrigine” (Shanghai Aucta Pharmaceuticals Co., Ltd., priority 2016, dated 2020).

Nc1nnc(-c2cccc(Cl)c2Cl)c(N)n1 [Lamotrigine, 6-(2,3-dichlorophenyl)-1,2,4-triazine-3,5-diamine]
Solubility in water: insoluble in water
